IC50 data for 9 molecules are collected here from ChEMBL document CHEMBL5727751, “Use of aza-tryptanthrin derivatives as inhibitors of IDO1 and/or TDO” (2020).

SMILES strings stand for the structures.

The target in this experiment is Indoleamine 2,3-dioxygenase 1 (Homo sapiens, UniProt P14902). The experiment in a line: Indoleamine-2,3-Dioxygenase 1 Inhibitory Activity: Experimental method: IDO-1 can oxidatively cleave the indole ring of tryptophan to form N-formylkynurenine. Referring to the method in the literature (Eddy W. Yue, et al. J. Med. Chem. 2009, 52, 7364-7367), 20 nM IDO-1, 2 mM D-tryptophan, 20 mM ascorbic acid, 3.5M methyl blue and 0.2 mg/mL antioxidant enzyme were sequentially added to 50 mM potassium phosphate buffer at room temperature. Due to the formation of N-formylkynurenine, the reaction rate was recorded by the increasing absorbance of the solution at 321 nm. IC50 values were calculated using Prism GraphPad software.
Chain of Indoleamine 2,3-dioxygenase 1 (P14902 whole entry): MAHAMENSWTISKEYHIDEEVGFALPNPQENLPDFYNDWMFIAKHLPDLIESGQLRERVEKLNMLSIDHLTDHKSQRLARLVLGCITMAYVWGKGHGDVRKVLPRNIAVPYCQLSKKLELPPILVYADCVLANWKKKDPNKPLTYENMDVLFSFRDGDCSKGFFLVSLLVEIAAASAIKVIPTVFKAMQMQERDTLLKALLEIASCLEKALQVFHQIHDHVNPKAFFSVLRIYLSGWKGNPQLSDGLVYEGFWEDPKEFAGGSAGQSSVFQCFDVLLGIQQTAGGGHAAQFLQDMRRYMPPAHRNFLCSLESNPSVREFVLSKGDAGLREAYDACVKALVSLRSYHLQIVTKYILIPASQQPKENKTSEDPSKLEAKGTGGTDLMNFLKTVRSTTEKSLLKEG
The IC50 is the concentration that inhibits the measured activity by half. For the molecule `O=C1c2cc(F)ccc2-n2c1nc1ncccc1c2=O`, the concentration for half-maximal inhibition (IC50) is 1 to 100 nM.
The figure for `O=C1c2cc([N+](=O)[O-])ccc2-n2c1nc1ncccc1c2=O` is 1 to 100 nM.
For the molecule `N=C(N)NN=C1c2cc([N+](=O)[O-])ccc2-n2c1nc1ncccc1c2=O`, the 50% inhibitory concentration (IC50) was 1 to 100 nM.
The figure for `NC(=S)NN=C1c2cc([N+](=O)[O-])ccc2-n2c1nc1ncccc1c2=O` is 1 to 100 nM; for `O=C1c2cnccc2-n2c1nc1ncccc1c2=O` it is 1 to 100 nM; for `O=C1c2cc(OC(F)(F)F)ccc2-n2c1nc1ncccc1c2=O` it is 1 to 100 nM.
The same measure for `CN(C)C(=S)NN=C1c2cc([N+](=O)[O-])ccc2-n2c1nc1ncccc1c2=O`: 1 to 100 nM; for `CN(C)CCON=C1c2cc([N+](=O)[O-])ccc2-n2c1nc1ncccc1c2=O`: 1 to 100 nM; for `O=C1c2cc(Cl)ccc2-n2c1nc1ncccc1c2=O`: 1 to 100 nM.
